We go through 59 compounds from patent US9458113B2 (Boehringer Ingelheim International GmbH, priority 2014, dated 2016).

Some results are limits rather than exact numbers.

For the test, the target named is Human neutrophil elastase (Homo sapiens (Human), UniProt P08246). In words: Human Neutrophil Elastase Assay. In kind it is biochemical. To be noted: substrate MeOSuc-Ala-Ala-Pro-Val-AMC 250 μM, pH 7.5.
Chain of Human neutrophil elastase (P08246 30-247): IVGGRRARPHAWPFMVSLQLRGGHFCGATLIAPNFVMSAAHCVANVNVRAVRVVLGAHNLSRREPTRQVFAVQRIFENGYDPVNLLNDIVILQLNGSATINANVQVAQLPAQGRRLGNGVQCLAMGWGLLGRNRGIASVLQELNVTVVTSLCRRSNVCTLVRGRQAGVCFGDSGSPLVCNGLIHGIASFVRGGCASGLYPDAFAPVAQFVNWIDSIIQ
In turn, `CN1C(=O)N(c2cccc(C(F)(F)F)c2)C2=C(C(=O)CC2)C1c1ccc(C#N)cc1C(=O)NC1CCOCC1` (centres unmarked) [Example 1.23] came in with an IC50 of 8.4 nM. Consider `COCCCN(C)C(=O)c1cc(C#N)ccc1C1C2=C(CCC2=O)N(c2cccc(C(F)(F)F)c2)C(=O)N1C` (centres unmarked) [Example 1.24], for which the IC50 came to 3.3 nM. Under `CN1CCC(NC(=O)c2cc(C#N)ccc2C2C3=C(CCC3=O)N(c3cccc(C(F)(F)F)c3)C(=O)N2C)CC1` (centres unmarked) [Example 1.25] stands 8 nM.

In the case of `CN1C(=O)N(c2cccc(C(F)(F)F)c2)C2=C(C(=O)CC2)C1c1ccc(C#N)cc1C(=O)NCCS(C)(=O)=O` (centres unmarked) [Example 1.26], the IC50 stood at 4.6 nM. In turn, `CN(Cc1cnn(C)c1)C(=O)c1cc(C#N)ccc1C1C2=C(CCC2=O)N(c2cccc(C(F)(F)F)c2)C(=O)N1C` (centres unmarked) [Example 1.27] came in with an IC50 below 1 nM. As for `CN1C(=O)N(c2cccc(C(F)(F)F)c2)C2=C(C(=O)CC2)C1c1ccc(C#N)cc1C(=O)NC1CCS(=O)(=O)C1` (centres unmarked) [Example 1.28], the figure is 4.3 nM; as for `CN(C)CCNC(=O)c1cc(C#N)ccc1C1C2=C(CCC2=O)N(c2cccc(C(F)(F)F)c2)C(=O)N1C` (centres unmarked) [Example 1.29], 4.8 nM. Under `CN1CCC(NC(=O)c2cc(C#N)ccc2C2C3=C(CCC3=O)N(c3cccc(C(F)(F)F)c3)C(=O)N2C)C1` (centres unmarked) [Example 1.30] stands 7.4 nM; under `CN1C(=O)N(c2cccc(C(F)(F)F)c2)C2=C(C(=O)CC2)C1c1ccc(C#N)cc1C(=O)N1CCN(C2CC2)CC1` (centres unmarked) [Example 1.33], 10.5 nM. For the compound `CN1C(=O)N(c2cccc(C(F)(F)F)c2)C2=C(C(=O)CC2)C1c1ccc(C#N)cc1C(=O)N1CCN2CCOCC2C1` (centres unmarked) [Example 1.35], inhibition was half-maximal at 16.2 nM (IC50). For the compound `CN1C(=O)N(c2cccc(C(F)(F)F)c2)C2=C(C(=O)CC2)C1c1ccc(C#N)cc1C(=O)NCc1ccco1` (centres unmarked) [Example 1.36], the 50% inhibitory concentration (IC50) amounted to 2.2 nM.

The compound `CN1C(=O)N(c2cccc(C(F)(F)F)c2)C2=C(C(=O)CC2)C1c1ccc(C#N)cc1C(=O)NCc1ccoc1` (centres unmarked) [Example 1.37] showed an IC50 of 3.4 nM. Under `CN1C(=O)N(c2cccc(C(F)(F)F)c2)C2=C(C(=O)CC2)C1c1ccc(C#N)cc1C(=O)NCc1cn[nH]c1` (centres unmarked) [Example 1.38] stands 5 nM; under `CN1C(=O)N(c2cccc(C(F)(F)F)c2)C2=C(C(=O)CC2)C1c1ccc(C#N)cc1C(=O)NCc1ccno1` (centres unmarked) [Example 1.39], 1.9 nM. As for `CN1C(=O)N(c2cccc(C(F)(F)F)c2)C2=C(C(=O)CC2)C1c1ccc(C#N)cc1C(=O)NCc1cnco1` (centres unmarked) [Example 1.40], the figure is 1 nM; as for `CN1C(=O)N(c2cccc(C(F)(F)F)c2)C2=C(C(=O)CC2)C1c1ccc(C#N)cc1C(=O)NCc1ncco1` (centres unmarked) [Example 1.41], 3.8 nM; as for `CN1C(=O)N(c2cccc(C(F)(F)F)c2)C2=C(C(=O)CC2)C1c1ccc(C#N)cc1C(=O)NCc1cnoc1` (centres unmarked) [Example 1.42], 1.9 nM. Compound `CN1C(=O)N(c2cccc(C(F)(F)F)c2)C2=C(C(=O)CC2)C1c1ccc(C#N)cc1C(=O)NCc1ccon1` (centres unmarked) [Example 1.43] had a 50% inhibitory concentration (IC50) of 2 nM.

`CN1C(=O)N(c2cccc(C(F)(F)F)c2)C2=C(C(=O)CC2)C1c1ccc(C#N)cc1C(=O)NCc1cocn1` (centres unmarked) [Example 1.44] yielded a half-maximal inhibitory concentration (IC50) of 3.4 nM. Take `CN1C(=O)N(c2cccc(C(F)(F)F)c2)C2=C(C(=O)CC2)C1c1ccc(C#N)cc1C(=O)NCc1ccccc1` (centres unmarked) [Example 1.45]: the IC50 turned out to be 5.3 nM.

In the case of `CN1C(=O)N(c2cccc(C(F)(F)F)c2)C2=C(C(=O)CC2)C1c1ccc(C#N)cc1C(=O)NCc1cccnc1` (centres unmarked) [Example 1.46], half-maximal inhibition (IC50) required 3.9 nM. `CN1C(=O)N(c2cccc(C(F)(F)F)c2)C2=C(C(=O)CC2)C1c1ccc(C#N)cc1C(=O)NCc1ccccn1` (centres unmarked) [Example 1.47]: the half-maximal inhibitory concentration (IC50) came out at 4.2 nM. As for `CN1C(=O)N(c2cccc(C(F)(F)F)c2)C2=C(C(=O)CC2)C1c1ccc(C#N)cc1C(=O)NCc1ccncc1` (centres unmarked) [Example 1.48], the figure is 4.1 nM.

`CN1C(=O)N(c2cccc(C(F)(F)F)c2)C2=C(C(=O)CC2)C1c1ccc(C#N)cc1C(=O)NCc1ccnnc1` (centres unmarked) [Example 1.49]: half-maximal inhibition (IC50) was put at 5 nM. Under `CN1C(=O)N(c2cccc(C(F)(F)F)c2)C2=C(C(=O)CC2)C1c1ccc(C#N)cc1C(=O)NCc1cccnn1` (centres unmarked) [Example 1.50] stands 2.9 nM. Under `CC(NC(=O)c1cc(C#N)ccc1C1C2=C(CCC2=O)N(c2cccc(C(F)(F)F)c2)C(=O)N1C)c1ccco1` (centres unmarked) [Example 1.51] stands 6.6 nM; under `CN1C(=O)N(c2cccc(C(F)(F)F)c2)C2=C(C(=O)CC2)C1c1ccc(C#N)cc1C(=O)NCc1cncn1C` (centres unmarked) [Example 1.52], 4.2 nM. Under `CN1C(=O)N(c2cccc(C(F)(F)F)c2)C2=C(C(=O)CC2)C1c1ccc(C#N)cc1C(=O)NCc1ccn(C)n1` (centres unmarked) [Example 1.53] stands 2.2 nM; under `CN1C(=O)N(c2cccc(C(F)(F)F)c2)C2=C(C(=O)CC2)C1c1ccc(C#N)cc1C(=O)NCc1cn(C)cn1` (centres unmarked) [Example 1.54], 6.9 nM. The compound `CN1C(=O)N(c2cccc(C(F)(F)F)c2)C2=C(C(=O)CC2)C1c1ccc(C#N)cc1C(=O)NCc1cnn(C)c1` (centres unmarked) [Example 1.55] had an IC50 of 4.8 nM. As for `CN1C(=O)N(c2cccc(C(F)(F)F)c2)C2=C(C(=O)CC2)C1c1ccc(C#N)cc1C(=O)NCc1ccnn1C` (centres unmarked) [Example 1.56], the figure is 5.4 nM; as for `CN(Cc1cn[nH]c1)C(=O)c1cc(C#N)ccc1C1C2=C(CCC2=O)N(c2cccc(C(F)(F)F)c2)C(=O)N1C` (centres unmarked) [Example 1.57], below 1 nM; as for `CN1C(=O)N(c2cccc(C(F)(F)F)c2)C2=C(C(=O)CC2)C1c1ccc(C#N)cc1C(=O)NCc1nccn1C` (centres unmarked) [Example 1.58], 2.4 nM. `CN(Cc1ccon1)C(=O)c1cc(C#N)ccc1C1C2=C(CCC2=O)N(c2cccc(C(F)(F)F)c2)C(=O)N1C` (centres unmarked) [Example 1.59] came in with an IC50 of 1.1 nM. `CN(Cc1ccno1)C(=O)c1cc(C#N)ccc1C1C2=C(CCC2=O)N(c2cccc(C(F)(F)F)c2)C(=O)N1C` (centres unmarked) [Example 1.60] gave an IC50 below 1 nM. As for `CN1C(=O)N(c2cccc(C(F)(F)F)c2)C2=C(C(=O)CC2)C1c1ccc(C#N)cc1C(=O)NCc1nncn1C` (centres unmarked) [Example 1.61], the IC50 came out at 6 nM. As for `CN1C(=O)N(c2cccc(C(F)(F)F)c2)C2=C(C(=O)CC2)C1c1ccc(C#N)cc1C(=O)NCc1nnnn1C` (centres unmarked) [Example 1.62], the figure is 2.5 nM; as for `CN1C(=O)N(c2cccc(C(F)(F)F)c2)C2=C(C(=O)CC2)C1c1ccc(C#N)cc1C(=O)N1Cc2ccncc2C1` (centres unmarked) [Example 1.63], 3.9 nM; as for `CN1C(=O)N(c2cccc(C(F)(F)F)c2)C2=C(C(=O)CC2)C1c1ccc(C#N)cc1C(=O)NCc1ccc(C#N)o1` (centres unmarked) [Example 1.64], 6.9 nM. Under `CN(Cc1ccncc1)C(=O)c1cc(C#N)ccc1C1C2=C(CCC2=O)N(c2cccc(C(F)(F)F)c2)C(=O)N1C` (centres unmarked) [Example 1.65] stands 1.7 nM; under `CN1C(=O)N(c2cccc(C(F)(F)F)c2)C2=C(C(=O)CC2)C1c1ccc(C#N)cc1C(=O)N1CCn2cncc2C1` (centres unmarked) [Example 1.66], 7.1 nM; under `CN1C(=O)N(c2cccc(C(F)(F)F)c2)C2=C(C(=O)CC2)C1c1ccc(C#N)cc1C(=O)N1Cc2cnn(C)c2C1` (centres unmarked) [Example 1.67], 4.1 nM. With `CN1C(=O)N(c2cccc(C(F)(F)F)c2)C2=C(C(=O)CC2)C1c1ccc(C#N)cc1C(=O)N1CCn2ccnc2C1` (centres unmarked) [Example 1.68], the IC50 was below 1 nM. Under `CN1C(=O)N(c2cccc(C(F)(F)F)c2)C2=C(C(=O)CC2)C1c1ccc(C#N)cc1C(=O)N1CCc2nocc2C1` (centres unmarked) [Example 1.69] stands 9.8 nM; under `CN1C(=O)N(c2cccc(C(F)(F)F)c2)C2=C(C(=O)CC2)C1c1ccc(C#N)cc1C(=O)N1CCn2ncnc2C1` (centres unmarked) [Example 1.70], 1.9 nM. As for `CN(Cc1ccnn1C)C(=O)c1cc(C#N)ccc1C1C2=C(CCC2=O)N(c2cccc(C(F)(F)F)c2)C(=O)N1C` (centres unmarked) [Example 1.71], the figure is below 1 nM; as for `CN(Cc1cncn1C)C(=O)c1cc(C#N)ccc1C1C2=C(CCC2=O)N(c2cccc(C(F)(F)F)c2)C(=O)N1C` (centres unmarked) [Example 1.72], below 1 nM; as for `CN(Cc1ccn(C)n1)C(=O)c1cc(C#N)ccc1C1C2=C(CCC2=O)N(c2cccc(C(F)(F)F)c2)C(=O)N1C` (centres unmarked) [Example 1.73], 1.3 nM.

Take `CN(Cc1nccn1C)C(=O)c1cc(C#N)ccc1C1C2=C(CCC2=O)N(c2cccc(C(F)(F)F)c2)C(=O)N1C` (centres unmarked) [Example 1.74]: the IC50 was below 1 nM. Compound `CN(Cc1nncn1C)C(=O)c1cc(C#N)ccc1C1C2=C(CCC2=O)N(c2cccc(C(F)(F)F)c2)C(=O)N1C` (centres unmarked) [Example 1.75] gave an IC50 of 1.4 nM. Consider `CN1C(=O)N(c2cccc(C(F)(F)F)c2)C2=C(C(=O)CC2)C1c1ccc(C#N)cc1C(=O)NCCN1CCOCC1` (centres unmarked) [Example 1.76], for which half-maximal inhibition (IC50) required 4.5 nM. The compound `CC(=O)N(C)[C@H]1CCN(C(=O)c2cc(C#N)ccc2C2C3=C(CCC3=O)N(c3cccc(C(F)(F)F)c3)C(=O)N2C)C1` (some centres unmarked) [Example 1.77] came in with a half-maximal inhibitory concentration (IC50) of 2.3 nM. In turn, `CC(=O)N(C)[C@@H]1CCN(C(=O)c2cc(C#N)ccc2C2C3=C(CCC3=O)N(c3cccc(C(F)(F)F)c3)C(=O)N2C)C1` (some centres unmarked) [Example 1.78] returned a 50% inhibitory concentration (IC50) of 2.6 nM. Under `CN1C(=O)N(c2cccc(C(F)(F)F)c2)C2=C(C(=O)CC2)C1c1ccc(C#N)cc1C(=O)N1CCC(N2CCOCC2)C1` (centres unmarked) [Example 1.79] stands 3 nM; under `CN1C(=O)N(c2cccc(C(F)(F)F)c2)C2=C(C(=O)CC2)C1c1ccc(C#N)cc1C(=O)NCC(=O)N1CCOCC1` (centres unmarked) [Example 1.80], 6 nM. Compound `CN(CCN1CCOCC1)C(=O)c1cc(C#N)ccc1C1C2=C(CCC2=O)N(c2cccc(C(F)(F)F)c2)C(=O)N1C` (centres unmarked) [Example 1.81] displayed an IC50 of 1.6 nM. As for `CC(=O)N[C@H]1CCN(C(=O)c2cc(C#N)ccc2C2C3=C(CCC3=O)N(c3cccc(C(F)(F)F)c3)C(=O)N2C)C1` (some centres unmarked) [Example 1.83], the figure is 2.2 nM; as for `CC(=O)N[C@@H]1CCN(C(=O)c2cc(C#N)ccc2C2C3=C(CCC3=O)N(c3cccc(C(F)(F)F)c3)C(=O)N2C)C1` (some centres unmarked) [Example 1.84], 1.3 nM. Under `CC(=O)N1CCN(C(=O)c2cc(C#N)ccc2C2C3=C(CCC3=O)N(c3cccc(C(F)(F)F)c3)C(=O)N2C)CC1` (centres unmarked) [Example 1.85] stands 4.6 nM.
